How the values were obtained:
Test in all cases: two-electrode voltage clamp, Xenopus oocytes
Assay type in all cases: cell-based
LymP2X [1] = biological target: T1, LymP2X (Lymnaea stagnalis, UniProt K7QP77)
T1 construct: full-length, 435 residues, shorter clone starting at second in-frame ATG; cRNA injected in Xenopus oocytes; homotrimer expected (P2X family); differs from contig FX193730 in 50 residues of the cysteine-rich head (possible alternative exon)
T1 sequence (K7QP77 1-435): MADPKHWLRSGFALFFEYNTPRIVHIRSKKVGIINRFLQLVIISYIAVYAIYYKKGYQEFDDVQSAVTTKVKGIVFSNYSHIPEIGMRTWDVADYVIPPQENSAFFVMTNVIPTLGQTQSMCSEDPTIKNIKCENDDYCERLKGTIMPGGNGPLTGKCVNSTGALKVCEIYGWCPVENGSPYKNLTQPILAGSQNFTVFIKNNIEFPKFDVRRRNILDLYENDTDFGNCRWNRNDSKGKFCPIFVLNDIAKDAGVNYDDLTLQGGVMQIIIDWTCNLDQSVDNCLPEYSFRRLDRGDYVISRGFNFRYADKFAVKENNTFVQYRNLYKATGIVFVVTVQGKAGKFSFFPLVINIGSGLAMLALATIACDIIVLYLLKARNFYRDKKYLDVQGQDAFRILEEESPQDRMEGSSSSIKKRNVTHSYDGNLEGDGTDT

LymP2X clone 11 = biological target: T2, LymP2X clone 11 (Lymnaea stagnalis, UniProt K7QP77, INS0MTTK)
T2 construct: full-length plus N-terminal MTTK (upstream in-frame ATG at nucleotide 3) added to LymP2X (GenBank JX524180); Xenopus oocytes
T2 sequence (K7QP77 1-435 INS0MTTK): T1 sequence (K7QP77 1-435)

LymP2X [2] = biological target: T1, LymP2X; remark: listed apart in the source
LymP2X [3] = biological target: T1, LymP2X; details: weak agonist; pH 7.5, 1.8 mM Ba2+ in place of Ca2+, -60 mV

Structure (SMILES) | EC50 (LymP2X [1]) [µM] | IC50 (LymP2X [2]) [µM] | other results
Nc1ncnc2c1ncn2[C@@H]1O[C@H](COP(=O)(O)OP(=O)(O)OP(=O)(O)O)[C@@H](O)[C@H]1O [ATP] | 6.2 | – | EC50 (LymP2X clone 11): 5.8 µM
Nc1ncnc2c1ncn2[C@@H]1O[C@H](COP(=O)(O)OP(=O)(O)OP(=O)(O)O)[C@@H](OC(=O)c2ccc(C(=O)c3ccccc3)cc2)[C@H]1O [BzATP] | 2.4 | – | –
Cc1nc(N=Nc2ccc(S(=O)(=O)O)cc2S(=O)(=O)O)c(COP(=O)(O)O)c(C=O)c1O [PPADS] | – | 8.1 | –
Cc1ccc(C(=O)Nc2ccc(S(=O)(=O)O)c3cc(S(=O)(=O)O)cc(S(=O)(=O)O)c23)cc1NC(=O)c1cccc(NC(=O)Nc2cccc(C(=O)Nc3cc(C(=O)Nc4ccc(S(=O)(=O)O)c5cc(S(=O)(=O)O)cc(S(=O)(=O)O)c45)ccc3C)c2)c1 [suramin] | – | 27.4 | –
Nc1ncnc2c1ncn2[C@@H]1O[C@H](COP(=O)(O)CP(=O)(O)OP(=O)(O)O)[C@@H](O)[C@H]1O [αβmeATP] | – | – | % of 10 μM ATP response at 100 μM (LymP2X [3]): 36.9±10.6%
